Laboratory results as given in ChEMBL document CHEMBL1131862, “Synthesis and anti-HIV activity of arylpiperazinyl fluoroquinolones: a new class of anti-HIV agents” (Bioorg Med Chem Lett, 1999).

Legend:
[1] = system: Human immunodeficiency virus 1; assay: Cytotoxicity to HIV-1 IIIB chronically infected Molt-4 cells assayed using tetrazolium based colorimetric assay; format: functional; details: Human immunodeficiency virus 1, MOLT-4
[2] = system: Human immunodeficiency virus 1; assay: Anti-HIV activity against HIV-1 IIIB chronically infected Molt-4 cells; format: functional, organism-based; details: Human immunodeficiency virus 1, MOLT-4
[3] = system: MOLT-4; assay: Anti-HIV activity against HIV-1 IIIB chronically infected Molt-4 cells; Not active; format: functional, cell-based, Homo sapiens

O=C(O)c1cn(C2CC2)c2c(OC(F)F)c(N3CCNCC3)c(F)cc2c1=O
CC50 [1]: > 60 µM
IC50 [2]: > 60000 nM

COc1ccccc1N1CCN(c2c(F)cc3c(=O)c(C(=O)O)cn(CCO)c3c2OC(F)F)CC1
CC50 [1]: 26 µM
IC50 [2]: 260 nM

COc1ccccc1N1CCN(c2c(F)cc3c(=O)c(C(=O)O)cn(C(C)C)c3c2OC(F)F)CC1
CC50 [1]: 8.9 µM
IC50 [2]: 100 nM

CCn1cc(C(=O)O)c(=O)c2cc(F)c(N3CCN(c4ccccc4OC)CC3)c(OC(F)F)c21
CC50 [1]: 13 µM
IC50 [2]: 94 nM

CNn1cc(C(=O)O)c(=O)c2cc(F)c(N3CCN(c4ncccn4)CC3)c(OC(F)F)c21
CC50 [1]: > 60 µM
IC50 [2]: 500 nM

CC(C)n1cc(C(=O)O)c(=O)c2cc(F)c(N3CCN(c4ncccn4)CC3)c(OC(F)F)c21
CC50 [1]: 31 µM
IC50 [2]: 230 nM

CC1COc2c(N3CCN(c4ccccn4)CC3)c(F)cc3c(=O)c(C(=O)O)cn1c23 (stereo not given)
CC50 [1]: 39 µM
IC50 [2]: 3700 nM

O=C(O)c1cn(C2CC2)c2c(OC(F)F)c(N3CCN(c4ccccn4)CC3)c(F)cc2c1=O
CC50 [1]: 15 µM
IC50 [2]: 250 nM

COc1ccccc1N1CCN(c2c(F)cc3c(=O)c(C(=O)O)cn(CCN(C)C)c3c2OC(F)F)CC1
CC50 [1]: > 55 µM
IC50 [2]: 5600 nM

Cn1cc(C(=O)O)c(=O)c2cc(F)c(N3CCN(c4ncccn4)CC3)c(OC(F)F)c21
CC50 [1]: 38 µM
IC50 [2]: 140 nM

COc1cccc(N2CCN(c3c(F)cc4c(=O)c(C(=O)O)cn(C5CC5)c4c3OC(F)F)CC2)c1
CC50 [1]: 22 µM
IC50 [2]: 700 nM

O=C(O)c1cn(C2CC2)c2c(OC(F)F)c(N3CCN(c4ncccn4)CC3)c(F)cc2c1=O
CC50 [1]: > 40 µM
IC50 [2]: 970 nM

O=C(O)c1cn(C2CC2)c2c(OC(F)F)c(N3CCN(Cc4ccccc4)CC3)c(F)cc2c1=O
CC50 [1]: 23 µM
IC50 [3]: Not Active

O=C(O)c1cn(C2CC2)c2c(OC(F)F)c(N3CCN(c4ccccc4)CC3)c(F)cc2c1=O
CC50 [1]: 8.4 µM
IC50 [2]: 63 nM

COc1ccccc1N1CCN(c2c(F)cc3c(=O)c(C(=O)O)cn(C)c3c2OC(F)F)CC1
CC50 [1]: 13 µM
IC50 [2]: 140 nM

O=C(O)c1cn(C2CC2)c2c(F)c(N3CCN(c4ccccn4)CC3)c(F)cc2c1=O
CC50 [1]: > 50 µM
IC50 [2]: 50000 nM

CNn1cc(C(=O)O)c(=O)c2cc(F)c(N3CCN(c4ccccc4OC)CC3)c(OC(F)F)c21
CC50 [1]: 19 µM
IC50 [2]: 350 nM

O=C(O)c1cn(C2CC2)c2c(OC(F)F)c(N3CCN(c4ccc(F)cc4)CC3)c(F)cc2c1=O
CC50 [1]: 5.7 µM
IC50 [2]: 59 nM

COc1ccccc1N1CCN(c2c(F)cc3c(=O)c(C(=O)O)cn(CCF)c3c2OC(F)F)CC1
CC50 [1]: 22 µM
IC50 [2]: 270 nM

CN1CCN(c2c(F)cc3c(=O)c(C(=O)O)cn(C4CC4)c3c2OC(F)F)CC1
CC50 [1]: > 60 µM
IC50 [2]: > 60000 nM

COc1ccc(N2CCN(c3c(F)cc4c(=O)c(C(=O)O)cn(C5CC5)c4c3OC(F)F)CC2)cc1
CC50 [1]: 17 µM
IC50 [2]: 600 nM

O=C(O)c1cn(CCO)c2c(OC(F)F)c(N3CCN(c4ncccn4)CC3)c(F)cc2c1=O
CC50 [1]: > 60 µM
IC50 [2]: 790 nM

O=C(O)c1cn(C2CC2)c2c(OC(F)F)c(N3CCN(c4ccc(Cl)cc4)CC3)c(F)cc2c1=O
CC50 [1]: 5.8 µM
IC50 [2]: 480 nM

COc1ccccc1N1CCN(c2c(F)cc3c(=O)c(C(=O)O)cn(CC(=O)O)c3c2OC(F)F)CC1
CC50 [1]: > 55 µM
IC50 [2]: > 55000 nM

COc1c(N2CCN(c3ccccn3)CC2)c(F)cc2c(=O)c(C(=O)O)cn(C3CC3)c12
CC50 [1]: 26 µM
IC50 [2]: 1800 nM

COc1ccccc1N1CCN(c2c(F)cc3c(=O)c(C(=O)O)cn(CCOC(C)=O)c3c2OC(F)F)CC1
CC50 [1]: 11 µM
IC50 [2]: 100 nM

O=C(O)c1cn2c3c(c(N4CCN(c5ccccn5)CC4)c(F)cc3c1=O)OCC2CF (stereo not given)
CC50 [1]: > 60 µM
IC50 [2]: 1700 nM

COc1ccccc1N1CCN(c2c(F)cc3c(=O)c(C(=O)O)cn(C4CC4)c3c2OC(F)F)CC1
CC50 [1]: 9.9 µM
IC50 [2]: 110 nM

O=C(O)c1cn(CCF)c2c(OC(F)F)c(N3CCN(c4ncccn4)CC3)c(F)cc2c1=O
CC50 [1]: > 60 µM
IC50 [2]: 930 nM

CCn1cc(C(=O)O)c(=O)c2cc(F)c(N3CCN(c4ncccn4)CC3)c(OC(F)F)c21
CC50 [1]: 28 µM
IC50 [2]: 410 nM
